This is an account of results in patent US8236792B2, “Substituted pyrrolidine amides as modulators of the histamine H3 receptor” (Janssen Pharmaceutica NV, priority 2008, dated 2012).

A word on the Ki: it is the dissociation constant of the complex between target and ligand, obtained from inhibition or displacement.

Test [1] concerns the target T1, cloned rat H3 receptors (Rattus norvegicus, UniProt Q9QYN8).
T1 construct: expressed in transfected cells
The test can be described thus: H3 Receptor Binding (Rat).
Description: Compounds were tested for binding to cloned rat H3 receptors, stably expressed in SK-N-MC cells.
(§1) Compounds were tested in their free base or hydrochloride salt forms.

The target in test [2] is T2, rat H3 receptor (Rattus norvegicus, UniProt Q9QYN8).
T2 construct: expressed in transfected cells; host or cells: SK-N-MC sublines with a reporter construct
T2 sequence (Q9QYN8 whole entry): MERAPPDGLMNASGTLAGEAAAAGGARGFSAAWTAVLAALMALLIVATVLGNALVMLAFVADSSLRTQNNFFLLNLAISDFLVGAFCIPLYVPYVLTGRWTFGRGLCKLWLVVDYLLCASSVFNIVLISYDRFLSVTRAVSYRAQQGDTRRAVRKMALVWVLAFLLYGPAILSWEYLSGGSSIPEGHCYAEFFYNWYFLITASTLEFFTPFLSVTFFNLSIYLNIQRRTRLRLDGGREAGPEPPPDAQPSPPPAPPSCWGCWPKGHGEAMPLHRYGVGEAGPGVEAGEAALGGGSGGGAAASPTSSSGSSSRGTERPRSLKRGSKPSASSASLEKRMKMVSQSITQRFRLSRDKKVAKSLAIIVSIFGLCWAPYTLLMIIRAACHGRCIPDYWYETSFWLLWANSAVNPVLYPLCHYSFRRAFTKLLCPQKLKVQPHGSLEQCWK
As to the kind of experiment: Cyclic AMP Accumulation (rat H3 reporter subline). The format is cell-based.
Description: (§2) Sublines of SK-N-MC cells were created that expressed a reporter construct and either the human or rat H3 receptor. […] Compounds were tested in their free base or trifluoroacetate salt forms.

In test [3] the target is T3, human H3 receptor (Homo sapiens, UniProt Q9Y5N1). The test can be described thus: H3 Receptor Binding (Human) Method 2, [125I]-iodoproxyfan competitive radioligand binding. The arrangement: expressed in transfected cells.
T3 sequence (Q9Y5N1 whole entry): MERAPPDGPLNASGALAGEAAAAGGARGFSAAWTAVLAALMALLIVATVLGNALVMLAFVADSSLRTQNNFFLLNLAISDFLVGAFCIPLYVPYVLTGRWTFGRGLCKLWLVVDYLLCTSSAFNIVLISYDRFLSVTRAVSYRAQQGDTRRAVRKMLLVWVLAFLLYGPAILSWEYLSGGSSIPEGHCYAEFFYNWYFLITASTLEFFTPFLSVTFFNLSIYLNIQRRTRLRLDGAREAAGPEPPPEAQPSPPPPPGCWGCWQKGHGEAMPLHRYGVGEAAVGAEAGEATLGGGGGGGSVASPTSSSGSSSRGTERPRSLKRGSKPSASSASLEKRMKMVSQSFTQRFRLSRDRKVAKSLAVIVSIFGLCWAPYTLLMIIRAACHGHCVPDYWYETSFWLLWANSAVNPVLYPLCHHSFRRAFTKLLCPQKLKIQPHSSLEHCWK
Description: SK-N-MC cells expressing the human H3 receptor were grown to confluence and tissue culture plates, washed with phosphate-buffered saline, and scraped into 50 mL tubes. After centrifugation, the supernatant was aspirated, and the pellets frozen and stored at −80° C. […] The homogenate was centrifuged at 25000×g for 25 min. […] Reactions were stopped by filtration through GF/B filter plates pre-soaked in 0.3% polyethylenimine and subsequently washed with Tris 50 mM, 5 mM EDTA buffer. Plates were dried for 1 h in a 55° C. oven. Scintillation fluid was added and the radioactivity was counted in a Packard TopCount. Non-specific binding to the H3 receptor was defined by radioactivity that was bound in the presence of 100 μM histamine.
as §1
The target in test [4] is T3, human H3 receptor. The test can be described thus: Cyclic AMP Accumulation (human H3 reporter subline). It counts as cell-based. Set-up: expressed in transfected cells; host or cells: SK-N-MC sublines with a reporter construct. Conditions: SK-N-MC subline with reporter construct and human H3 receptor, free base or trifluoroacetate salt, average; for Kb: read-out: Human pA2 (converted).
Description: as §2

Test [5] deals with T4, cloned human H3 receptors (Homo sapiens, UniProt Q9Y5N1).
T4 construct: expressed in transfected cells
T4 sequence (Q9Y5N1 whole entry): as above
The test can be described thus: H3 Receptor Binding (Human) Method 1. As to conditions: receptor stably expressed in SK-N-MC cells, free base forms, average of results.

[6] abbreviates: receptor stably expressed in SK-N-MC cells, free base or hydrochloride salt, average of results, read-out: Rat H3 Ki.
Where [7] appears, read: SK-N-MC subline with reporter construct and rat H3 receptor, free base or trifluoroacetate salt, average, read-out: Rat pA2 (converted).
Where [8] appears, read: SK-N-MC subline with reporter construct and rat H3 receptor, free base or trifluoroacetate salt, average.

Like-named read-outs stand apart in the source and are kept apart here.

T1 sequence (Q9QYN8 whole entry): as the sequence (Q9QYN8 whole entry) above

`O=C([C@H]1C[C@H](Oc2ccccc2)CN1)N1CCCN(C2CCC2)CC1` [Example 67, (2R,4S)-4-Phenoxy-2-(4-cyclobutyl-[1,4]diazepane-1-carbonyl)-pyrrolidine]: the Ki in test [1] (setting [6]) was 502 nM; in test [3], 5 nM. In test [2] (setting [7]), the Kb was 57.5 nM. Also, in test [4], the “Human pA2” value was determined as 8.09.

Take `CSc1ccc(O[C@@H]2CN[C@@H](C(=O)N3CCCN(C4CCC4)CC3)C2)cc1` [Example 71, (2R,4S)-4-(4-Methylsulfanyl-Phenoxy)-2-(4-cyclobutyl-[1,4]diazepane-1-carbonyl)-pyrrolidine]: the inhibitory constant (Ki) in test [1] is 54 nM; in test [3] it was 3 nM. Besides, the Kb was 10.7 nM in test [2] (setting [7]) and 2.04 nM in test [4].

`Cc1cc(O[C@@H]2CN[C@@H](C(=O)N3CCCN(C4CCC4)CC3)C2)ccc1Cl` [Example 72, (2R,4S)-4-(4-Chloro-3-methyl-phenoxy)-2-(4-cyclobutyl-[1,4]diazepane-1-carbonyl)-pyrrolidine]: the Ki was 36 nM in test [1] (setting [6]) and 3 nM in test [3]. In addition, the Kb is 4.9 nM in test [2] (setting [7]) and 1.02 nM in test [4].

In test [1], `N#Cc1ccc(O[C@@H]2CN[C@@H](C(=O)N3CCCN(C4CCCC4)CC3)C2)cc1` [Example 83, (2R,4S)-4-(4-Cyano-phenoxy)-2-(4-cyclopentyl-[1,4]diazepane-1-carbonyl)-pyrrolidine] came in with a Ki of 16 nM. In addition, the “Rat pA2” value in test [2] (setting [8]) is recorded as 8.51.

`N#Cc1ccc(O[C@H]2CN[C@H](C(=O)N3CCCN(C4CCC4)CC3)C2)cc1` [Example 94, (2S,4R)-4-(4-Cyano-phenoxy)-2-(4-cyclobutyl-[1,4]diazepane-1-carbonyl)-pyrrolidine]: affinity in test [1] was put at a Ki of 150 nM. Further, the Kb in test [2] (setting [7]) is 110 nM.

`CSc1ccc(O[C@H]2CN[C@H](C(=O)N3CCCN(C4CCC4)CC3)C2)cc1` [Example 96, (2S,4R)-2-(4-Cyclobutyl-[1,4]diazepane-1-carbonyl)-4-(4-methylsulfanyl-phenoxy)-pyrrolidine]: the inhibitory constant (Ki) in test [5] is 11 nM; in test [1] it was 84 nM. Moreover, the values for the Kb in test [2] (setting [7]) and in test [4] were 112 nM and 20.9 nM, respectively.

Take `O=C([C@H]1C[C@H](Oc2ccsc2)CN1)N1CCCN(C2CCC2)CC1` [Example 102, (2R,4S)-2-(4-Cyclobutyl-[1,4]diazepane-1-carbonyl)-4-(thiophen-3-yloxy)-pyrrolidine]: in test [2] (setting [7]), the Kb was 21.9 nM. For the same compound, in test [3] (read-out: Human H3 Ki), the Ki turned out to be 5 nM. The “Human pA2” value in test [4] was found to be 8.65.

Regarding `CN1C[C@@H](Oc2ccc(F)cc2)C[C@@H]1C(=O)N1CCCN(C2CCC2)CC1` [Example 110, (2R,4S)-1-Methyl-2-(4-cyclobutyl-[1,4]diazepane-1-carbonyl)-4-(4-fluoro-phenoxy)-pyrrolidine], the Ki in test [1] worked out at 477 nM. In test [2], this compound had a Kb of 16.6 nM.

Take `CC(=O)N1C[C@@H](Oc2ccc(F)cc2)C[C@@H]1C(=O)N1CCCN(C2CCC2)CC1` [Example 120, (2R,4S)-1-[2-(4-Cyclobutyl-[1,4]diazepane-1-carbonyl)-4-(4-fluoro-phenoxy)-pyrrolidin-1-yl]-ethanone]: the Ki in test [1] (setting [6]) was 30 nM. In addition, the Kb in test [2] (setting [7]) was 1.62 nM.

As to `CC(=O)N1C[C@@H](Oc2cccc(F)c2)C[C@@H]1C(=O)N1CCCN(C2CCC2)CC1` [Example 131, (2R,4S)-1-[2-(4-Cyclobutyl-[1,4]diazepane-1-carbonyl)-4-(3-fluoro-phenoxy)-pyrrolidin-1-yl]-ethanone], the values for the Ki in test [1] and in test [3] were 17 nM and 2 nM, respectively. The “Rat pA2” value in test [2] (setting [8]) amounted to 8.22.

`CC(=O)N1C[C@@H](Oc2ccsc2)C[C@@H]1C(=O)N1CCCN(C2CCC2)CC1` [Example 134, (2R,4S)-1-[2-(4-Cyclobutyl-[1,4]diazepane-1-carbonyl)-4-(thiophen-3-yloxy)-pyrrolidin-1-yl]-ethanone]: the Kb in test [2] (setting [7]) was 8.71 nM. The Ki in test [3] (read-out: Human H3 Ki) came to 3 nM. For the same compound, the “Human pA2” value in test [4] is on record as 9.28.
